Data reported in paper PMC5240934, “Molecular Mechanism of Disease-Associated Mutations in the Pre-M1 Helix of NMDA Receptors and Potential Rescue Pharmacology” (PLoS Genetics, 2017).
Read-outs that look alike come from different tables or passages of the source.

Experiments:
Assay in all cases: two-electrode voltage clamp, Xenopus oocytes
Assay type in all cases: cell-based
human GluN1/GluN2A [1] = target: T1, human GluN1/GluN2A (Homo sapiens, UniProt Q05586+Q12879)
T1 construct: gene GRIN1; full open reading frames in pCI-neo, cRNA in Xenopus laevis oocytes; di-heteromeric tetramer
From the text: (§1) two-electrode voltage clamp, Xenopus oocytes on human GluN1/GluN2A

human GluN1/GluN2A [2] = target: T2, human GluN1/GluN2A (Homo sapiens, UniProt Q05586+Q12879, Q12879:P552R)
T2 construct: gene GRIN1; full open reading frames in pCI-neo, cRNA in Xenopus laevis oocytes; di-heteromeric tetramer
From the text: as §1

rat GluN1/GluN2D = target: T3, rat GluN1/GluN2D (Rattus norvegicus, UniProt P35439+Q62645)
T3 construct: gene Grin1; full-length subunits in pCI-neo, cRNA in Xenopus laevis oocytes; di-heteromeric tetramer
From the text: two-electrode voltage clamp, Xenopus oocytes on rat GluN1/GluN2D

human GluN1/GluN2A [3] = target: T4, human GluN1/GluN2A (Homo sapiens, UniProt Q05586+Q12879, Q05586:D552E)
T4 construct: gene GRIN1; full open reading frames in pCI-neo, cRNA in Xenopus laevis oocytes; di-heteromeric tetramer
From the text: as §1

human GluN1/GluN2A [4] = target: T5, human GluN1/GluN2A (Homo sapiens, UniProt Q05586+Q12879, Q05586:P557R)
T5 construct: gene GRIN1; full open reading frames in pCI-neo, cRNA in Xenopus laevis oocytes; di-heteromeric tetramer
From the text: as §1

human GluN1/GluN2A [5] = target: T6, human GluN1/GluN2A (Homo sapiens, UniProt Q05586+Q12879, Q12879:A548T)
T6 construct: gene GRIN1; full open reading frames in pCI-neo, cRNA in Xenopus laevis oocytes; di-heteromeric tetramer
From the text: as §1

human GluN1/GluN2B [6] = target: T7, human GluN1/GluN2B (Homo sapiens, UniProt Q05586+Q13224, Q13224:P553R)
T7 construct: gene GRIN1; full open reading frames in pCI-neo, cRNA in Xenopus laevis oocytes; di-heteromeric tetramer
From the text: (§2) two-electrode voltage clamp, Xenopus oocytes on human GluN1/GluN2B

human GluN1/GluN2B [7] = target: T8, human GluN1/GluN2B (Homo sapiens, UniProt Q05586+Q13224, Q05586:D552E)
T8 construct: gene GRIN1; full open reading frames in pCI-neo, cRNA in Xenopus laevis oocytes; di-heteromeric tetramer
From the text: as §2

human GluN1/GluN2B [8] = target: T9, human GluN1/GluN2B (Homo sapiens, UniProt Q05586+Q13224, Q05586:P557R)
T9 construct: gene GRIN1; full open reading frames in pCI-neo, cRNA in Xenopus laevis oocytes; di-heteromeric tetramer
From the text: as §2

[9] = read-out: IC50 (n; max inhibition) / GluN2A-P552R

T2 sequence (Q12879 23-1464 P552R, other chains not shown): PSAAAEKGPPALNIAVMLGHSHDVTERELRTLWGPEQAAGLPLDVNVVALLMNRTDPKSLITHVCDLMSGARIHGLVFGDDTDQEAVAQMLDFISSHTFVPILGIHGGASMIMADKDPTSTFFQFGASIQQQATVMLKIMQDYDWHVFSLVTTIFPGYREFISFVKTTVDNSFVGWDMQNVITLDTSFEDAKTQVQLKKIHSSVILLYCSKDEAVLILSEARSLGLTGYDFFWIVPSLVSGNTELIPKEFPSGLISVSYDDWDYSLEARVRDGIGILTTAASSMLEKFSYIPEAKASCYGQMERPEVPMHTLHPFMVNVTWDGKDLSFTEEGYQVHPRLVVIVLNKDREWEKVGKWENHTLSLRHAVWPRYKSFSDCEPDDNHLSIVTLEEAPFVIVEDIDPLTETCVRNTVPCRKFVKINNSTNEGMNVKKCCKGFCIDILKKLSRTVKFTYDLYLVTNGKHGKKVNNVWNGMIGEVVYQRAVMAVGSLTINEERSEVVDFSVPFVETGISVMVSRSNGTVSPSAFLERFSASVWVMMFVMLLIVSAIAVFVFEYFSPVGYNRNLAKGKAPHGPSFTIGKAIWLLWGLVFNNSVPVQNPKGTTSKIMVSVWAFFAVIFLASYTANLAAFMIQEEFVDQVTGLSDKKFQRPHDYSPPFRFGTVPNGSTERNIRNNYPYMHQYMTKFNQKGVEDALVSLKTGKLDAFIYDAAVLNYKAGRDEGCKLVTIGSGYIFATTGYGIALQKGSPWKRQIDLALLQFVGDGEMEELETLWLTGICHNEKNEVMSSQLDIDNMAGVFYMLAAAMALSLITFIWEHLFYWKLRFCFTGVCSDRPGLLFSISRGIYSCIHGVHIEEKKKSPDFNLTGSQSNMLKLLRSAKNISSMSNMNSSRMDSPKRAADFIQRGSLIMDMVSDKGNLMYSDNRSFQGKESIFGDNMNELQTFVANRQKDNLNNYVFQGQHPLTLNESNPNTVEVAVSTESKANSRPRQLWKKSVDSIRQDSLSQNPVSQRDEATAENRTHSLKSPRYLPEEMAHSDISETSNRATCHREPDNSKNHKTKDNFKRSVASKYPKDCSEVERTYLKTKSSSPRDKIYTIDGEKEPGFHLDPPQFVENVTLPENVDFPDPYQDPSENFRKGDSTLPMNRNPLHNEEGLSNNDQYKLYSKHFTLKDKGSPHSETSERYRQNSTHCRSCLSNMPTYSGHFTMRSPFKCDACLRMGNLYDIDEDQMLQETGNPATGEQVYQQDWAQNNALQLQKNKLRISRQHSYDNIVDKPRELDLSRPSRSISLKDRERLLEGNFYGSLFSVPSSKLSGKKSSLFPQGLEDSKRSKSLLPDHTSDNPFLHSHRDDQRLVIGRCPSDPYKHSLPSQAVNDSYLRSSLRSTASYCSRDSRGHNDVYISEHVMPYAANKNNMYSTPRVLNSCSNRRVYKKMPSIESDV
T1 sequence (Q12879 23-1464, other chains not shown): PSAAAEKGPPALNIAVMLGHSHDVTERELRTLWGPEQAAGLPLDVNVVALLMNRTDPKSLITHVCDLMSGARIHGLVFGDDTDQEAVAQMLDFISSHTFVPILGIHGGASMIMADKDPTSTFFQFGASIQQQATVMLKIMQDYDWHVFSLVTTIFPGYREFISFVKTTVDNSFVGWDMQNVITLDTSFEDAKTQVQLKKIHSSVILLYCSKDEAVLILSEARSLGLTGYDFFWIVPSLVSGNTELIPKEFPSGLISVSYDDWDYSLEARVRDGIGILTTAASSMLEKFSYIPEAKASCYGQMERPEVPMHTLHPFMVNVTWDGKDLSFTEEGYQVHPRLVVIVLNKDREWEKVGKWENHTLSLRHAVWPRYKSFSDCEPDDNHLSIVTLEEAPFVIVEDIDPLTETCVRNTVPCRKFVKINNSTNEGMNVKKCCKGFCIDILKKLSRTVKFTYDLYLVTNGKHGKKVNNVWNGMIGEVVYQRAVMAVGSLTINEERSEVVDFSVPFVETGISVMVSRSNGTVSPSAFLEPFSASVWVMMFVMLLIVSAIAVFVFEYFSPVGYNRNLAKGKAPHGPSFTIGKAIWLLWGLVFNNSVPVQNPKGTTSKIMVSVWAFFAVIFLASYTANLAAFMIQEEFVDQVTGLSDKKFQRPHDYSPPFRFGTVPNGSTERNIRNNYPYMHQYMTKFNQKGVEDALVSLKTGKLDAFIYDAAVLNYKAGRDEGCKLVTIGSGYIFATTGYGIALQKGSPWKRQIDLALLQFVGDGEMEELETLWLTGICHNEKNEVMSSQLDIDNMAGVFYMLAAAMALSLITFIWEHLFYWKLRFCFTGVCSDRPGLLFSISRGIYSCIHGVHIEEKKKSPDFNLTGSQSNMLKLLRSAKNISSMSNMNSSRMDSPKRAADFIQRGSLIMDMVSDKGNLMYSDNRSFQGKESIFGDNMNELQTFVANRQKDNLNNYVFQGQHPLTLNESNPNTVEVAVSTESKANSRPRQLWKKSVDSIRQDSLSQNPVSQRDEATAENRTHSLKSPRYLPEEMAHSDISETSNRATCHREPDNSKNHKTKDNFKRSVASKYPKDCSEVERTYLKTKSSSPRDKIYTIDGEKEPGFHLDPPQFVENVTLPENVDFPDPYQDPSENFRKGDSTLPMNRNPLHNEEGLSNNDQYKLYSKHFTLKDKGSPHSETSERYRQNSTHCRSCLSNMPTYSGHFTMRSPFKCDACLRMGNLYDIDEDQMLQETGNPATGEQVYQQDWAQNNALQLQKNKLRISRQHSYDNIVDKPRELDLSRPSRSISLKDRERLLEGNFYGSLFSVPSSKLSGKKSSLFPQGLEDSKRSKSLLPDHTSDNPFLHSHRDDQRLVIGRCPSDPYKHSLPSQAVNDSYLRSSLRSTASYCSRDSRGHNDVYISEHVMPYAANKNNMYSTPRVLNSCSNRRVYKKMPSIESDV
T7 sequence (Q13224 27-1484 P553R, other chains not shown): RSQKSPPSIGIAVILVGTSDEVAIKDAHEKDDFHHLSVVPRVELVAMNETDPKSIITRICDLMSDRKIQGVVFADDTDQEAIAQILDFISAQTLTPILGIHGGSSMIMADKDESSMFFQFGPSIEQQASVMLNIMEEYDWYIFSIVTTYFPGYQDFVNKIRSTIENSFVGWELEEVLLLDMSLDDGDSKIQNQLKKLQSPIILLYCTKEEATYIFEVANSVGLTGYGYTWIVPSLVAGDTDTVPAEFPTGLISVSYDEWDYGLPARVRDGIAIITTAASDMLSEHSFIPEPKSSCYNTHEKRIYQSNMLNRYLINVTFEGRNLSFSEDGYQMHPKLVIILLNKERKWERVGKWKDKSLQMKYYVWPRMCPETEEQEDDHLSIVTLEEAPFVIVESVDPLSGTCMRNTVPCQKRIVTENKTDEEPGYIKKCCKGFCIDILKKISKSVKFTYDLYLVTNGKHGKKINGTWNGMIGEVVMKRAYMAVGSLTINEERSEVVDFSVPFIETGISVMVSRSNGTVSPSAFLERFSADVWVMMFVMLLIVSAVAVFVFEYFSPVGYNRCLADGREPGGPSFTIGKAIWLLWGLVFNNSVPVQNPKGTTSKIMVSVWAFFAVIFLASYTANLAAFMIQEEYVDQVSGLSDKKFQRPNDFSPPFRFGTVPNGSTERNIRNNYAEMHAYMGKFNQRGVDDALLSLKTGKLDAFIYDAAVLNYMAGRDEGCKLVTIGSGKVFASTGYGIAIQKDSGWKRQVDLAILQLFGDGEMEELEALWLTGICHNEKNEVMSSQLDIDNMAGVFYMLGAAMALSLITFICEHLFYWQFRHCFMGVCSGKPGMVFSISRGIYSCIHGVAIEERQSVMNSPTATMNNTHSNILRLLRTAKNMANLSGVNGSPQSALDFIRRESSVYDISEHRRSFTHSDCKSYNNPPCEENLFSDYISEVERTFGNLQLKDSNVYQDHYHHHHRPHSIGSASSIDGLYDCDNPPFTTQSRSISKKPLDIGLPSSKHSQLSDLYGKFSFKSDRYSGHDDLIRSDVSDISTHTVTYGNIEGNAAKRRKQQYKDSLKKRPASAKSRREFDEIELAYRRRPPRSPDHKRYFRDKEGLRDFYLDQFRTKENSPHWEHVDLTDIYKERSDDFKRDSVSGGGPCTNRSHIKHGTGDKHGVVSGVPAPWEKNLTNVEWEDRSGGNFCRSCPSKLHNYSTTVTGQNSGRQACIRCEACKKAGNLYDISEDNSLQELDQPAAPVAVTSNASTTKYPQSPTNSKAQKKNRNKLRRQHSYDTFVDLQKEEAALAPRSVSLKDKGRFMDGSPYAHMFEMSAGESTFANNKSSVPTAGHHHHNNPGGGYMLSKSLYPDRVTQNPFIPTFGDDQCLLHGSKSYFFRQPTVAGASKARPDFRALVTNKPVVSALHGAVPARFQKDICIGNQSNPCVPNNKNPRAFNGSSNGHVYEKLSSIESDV

NC12CC3CC(CC(C3)C1)C2 [Amantadine]
IC50 (human GluN1/GluN2A [1]; read-out: IC50 (n; max inhibition) / GluN2A-WT): 126000 ± 17000 nM | IC50 (human GluN1/GluN2A [2]; [9]): 86000 ± 22000 nM

COc1ccc2c(c1)[C@]13CCCC[C@@H]1[C@H](C2)N(C)CC3 [Dextromethorphan]
IC50 (human GluN1/GluN2A [1]; channel blocker, -40 mV, pH 7.4, no Mg2+, 23 °C, read-out: IC50 (n; max inhibition) / GluN2A-WT): 18000 ± 2900 nM | IC50 (human GluN1/GluN2A [2]; [9]): 15000 ± 4600 nM

N[C@@H](CCC(=O)O)C(=O)O [Glutamate]
EC50 (rat GluN1/GluN2D): 400 ± 70 nM

NCC(=O)O [Glycine]
EC50 (human GluN1/GluN2A [3]): 3700 ± 320 nM | EC50 (human GluN1/GluN2A [4]): 180 ± 20 nM | EC50 (human GluN1/GluN2A [5]): 2400 ± 90 nM | EC50 (human GluN1/GluN2A [1]): 1400 ± 140 nM | EC50 (human GluN1/GluN2A [2]; read-out: Di-heteromeric NMDA Receptors / GluN2A-P552R): 60 ± 10 nM | EC50 (human GluN1/GluN2B [6]): 50 ± 10 nM | EC50 (human GluN1/GluN2B [7]): 660 ± 70 nM | EC50 (human GluN1/GluN2B [8]): 70 ± 10 nM

CNC1(c2ccccc2Cl)CCCCC1=O (stereo not drawn) [Ketamine]
IC50 (human GluN1/GluN2A [1]): 4700 ± 800 nM | IC50 (human GluN1/GluN2A [2]): 1300 ± 200 nM
